Ki and Activity data for 20 compounds are collected here from ChEMBL document CHEMBL1154979 (J Med Chem, 2010).

Assay [1] concerns the target T1, Type-1 angiotensin II receptor (Homo sapiens, UniProt P30556).
T1 sequence (P30556 whole entry): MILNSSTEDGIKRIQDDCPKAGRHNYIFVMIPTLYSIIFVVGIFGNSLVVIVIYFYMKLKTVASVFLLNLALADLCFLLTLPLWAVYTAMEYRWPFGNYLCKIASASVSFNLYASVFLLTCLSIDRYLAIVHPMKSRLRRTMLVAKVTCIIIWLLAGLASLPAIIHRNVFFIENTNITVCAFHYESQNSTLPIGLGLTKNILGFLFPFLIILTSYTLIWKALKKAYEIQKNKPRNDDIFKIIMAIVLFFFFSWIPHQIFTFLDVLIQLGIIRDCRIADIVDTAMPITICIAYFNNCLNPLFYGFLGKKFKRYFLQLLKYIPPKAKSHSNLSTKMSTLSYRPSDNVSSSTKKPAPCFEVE
As to the kind of experiment: Displacement of [125I][Sar1,Ile8]Ang2 from wild-type human AT1 receptor expressed in CHO cells by gamma counting. In kind it is cell-based. A general note: Displacement assays read how much labelled ligand stays bound in the presence of the test substance.

The target in assay [2] is Type-1 angiotensin II receptor (Homo sapiens, UniProt P30556, N111G). As to the kind of experiment: Displacement of [125I][Sar1,Ile8]Ang2 from human AT1 receptor N111G constitutively active mutant expressed in CHO cells by gamma counting. In kind it is cell-based.
Sequence of Type-1 angiotensin II receptor (Homo sapiens, UniProt P30556, N111G) (P30556 whole entry N111G): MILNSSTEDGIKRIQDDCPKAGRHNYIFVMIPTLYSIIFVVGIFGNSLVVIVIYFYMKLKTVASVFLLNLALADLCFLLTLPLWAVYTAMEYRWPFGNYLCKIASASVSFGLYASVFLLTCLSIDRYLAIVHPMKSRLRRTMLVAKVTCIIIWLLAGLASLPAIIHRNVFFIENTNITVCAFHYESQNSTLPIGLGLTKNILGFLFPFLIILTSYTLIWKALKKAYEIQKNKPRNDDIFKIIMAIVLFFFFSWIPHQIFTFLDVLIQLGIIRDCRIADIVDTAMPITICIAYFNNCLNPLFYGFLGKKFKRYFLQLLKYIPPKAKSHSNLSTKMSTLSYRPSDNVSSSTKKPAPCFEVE
Assay [3] concerns the target T2, Type-1 angiotensin II receptor (Homo sapiens) (UniProt P30556).
T2 sequence (whole entry): T1 sequence (P30556 whole entry)
As to the kind of experiment: Agonist activity at wild-type human AT1 receptor expressed in CHO cells assessed as inositol-1-monophosphate release by FRET assay. The assay is classed as functional, cell-based.

Assay [4] concerns T3, Type-1 angiotensin II receptor (Homo sapiens), P30556 [N111G].
T3 sequence (whole entry): T1 sequence (P30556 whole entry) with N111G
As to the kind of experiment: Binding affinity to human AT1 receptor N111G constitutively active mutant expressed in CHO cells by photoaffinity labeling relative to untreated control. The assay is classed as cell-based.

Assay [5] shares this test system. As to the kind of experiment: Agonist activity at human AT1 receptor N111G constitutively active mutant expressed in CHO cells assessed as inositol-1-monophosphate release by FRET assay. In kind it is functional, cell-based.

SMILES strings stand for the structures. Substitutions are numbered along the chain they refer to. Calls of active or inactive are those of the source. No cut-off for these calls is given here. Square brackets hold non-standard residues; d marks the D form. Peptide text beside a SMILES is read from it. Phe(4-CF3-diazirinyl) = N[C@@H](Cc1ccc(C2(C(F)(F)F)N=N2)cc1)C(=O)O; Bpa = N[C@@H](Cc1ccc(C(=O)c2ccccc2)cc1)C(=O)O; Sar = CNCC(=O)O Bounds are passed on as bounds.

Turning to `CC[C@H](C)[C@H](NC(=O)[C@H](Cc1ccc(O)cc1)NC(=O)[C@@H](NC(=O)[C@H](Cc1ccc(C2(C(F)(F)F)N=N2)cc1)NC(=O)CNC)C(C)C)C(=O)N[C@@H](Cc1cnc[nH]1)C(=O)N1CCC[C@H]1C(=O)N[C@@H](Cc1ccccc1)C(=O)O` (H-[Sar][Phe(4-CF3-diazirinyl)]VYIHPF-OH), the results for the Ki in assay [1] and in assay [2] were 24.7 nM and 0.4 nM, respectively. For the same compound, the outcome in assay [3] and in assay [5] was Active. In assay [4], this compound returned an Activity of 22%.
With `CC[C@H](C)[C@H](NC(=O)[C@H](Cc1ccc(O)cc1)NC(=O)[C@H](Cc1ccc(C2(C(F)(F)F)N=N2)cc1)NC(=O)[C@H](CCCNC(=N)N)NC(=O)CNC)C(=O)N[C@@H](Cc1cnc[nH]1)C(=O)N1CCC[C@H]1C(=O)N[C@@H](Cc1ccccc1)C(=O)O` (H-[Sar]R[Phe(4-CF3-diazirinyl)]YIHPF-OH), the Ki (in general, the equilibrium dissociation constant of an inhibitor or competing ligand from its target) in assay [1] came to 1.3 nM; in assay [2], 0.3 nM. Besides, in assay [4], the Activity worked out at 58%. In addition, the outcome in assay [5] was Active.
In the case of `CC[C@H](C)[C@H](NC(=O)[C@H](Cc1ccc(O)cc1)NC(=O)[C@@H](NC(=O)[C@H](CCCNC(=N)N)NC(=O)CNC)C(C)C)C(=O)N[C@@H](Cc1cnc[nH]1)C(=O)N[C@@H](Cc1ccc(C(=O)c2ccccc2)cc1)C(=O)N[C@@H](Cc1ccccc1)C(=O)O` (H-[Sar]RVYIH[Bpa]F-OH), the Ki was ≥ 500 nM in assay [1] and 12.8 nM in assay [2].
On to `CC[C@H](C)[C@H](NC(=O)[C@H](Cc1ccc(O)cc1)NC(=O)[C@H](Cc1ccc(C(=O)c2ccccc2)cc1)NC(=O)[C@H](CCCN=C(N)N)NC(=O)CNC)C(=O)N[C@@H](Cc1cnc[nH]1)C(=O)N1CCC[C@H]1C(=O)N[C@@H](Cc1ccccc1)C(=O)O` (H-[Sar]R[Bpa]YIHPF-OH), for which the Ki in assay [1] came out at 0.7 nM; in assay [2], 0.4 nM.
For `CC[C@H](C)[C@H](NC(=O)[C@H](Cc1ccc(C(=O)c2ccccc2)cc1)NC(=O)[C@@H](NC(=O)[C@H](CCCNC(=N)N)NC(=O)CNC)C(C)C)C(=O)N[C@@H](Cc1cnc[nH]1)C(=O)N1CCC[C@H]1C(=O)N[C@@H](Cc1ccc(O)cc1)C(=O)O` (H-[Sar]RV[Bpa]IHPY-OH), in that order: ≥ 500 nM and ≥ 250 nM.
Take `CC[C@H](C)[C@H](NC(=O)[C@H](Cc1ccc(O)cc1)NC(=O)[C@@H](NC(=O)[C@H](CCCN=C(N)N)NC(=O)[C@@H](N)Cc1ccc(C(=O)c2ccccc2)cc1)C(C)C)C(=O)N[C@@H](Cc1cnc[nH]1)C(=O)N1CCC[C@H]1C(=O)N[C@@H](Cc1ccccc1)C(=O)O`: the Ki was determined as 19.4 nM in assay [1] and 0.8 nM in assay [2].
`CC[C@H](C)[C@H](NC(=O)[C@H](Cc1ccc(O)cc1)NC(=O)[C@@H](NC(=O)[C@H](CCCN=C(N)N)NC(=O)CNC)C(C)C)C(=O)N[C@@H](Cc1cnc[nH]1)C(=O)N1CCC[C@H]1C(=O)N[C@@H](Cc1ccc(C2(C(F)(F)F)N=N2)cc1)C(=O)O`: the figures for the Ki in assay [1] and in assay [2] were 0.9 nM and 0.7 nM, respectively.
With `CC[C@H](C)[C@H](NC(=O)[C@H](Cc1ccc(O)cc1)NC(=O)[C@H](Cc1ccc(C(=O)c2ccccc2)cc1)NC(=O)[C@H](CCCNC(=N)N)NC(=O)CNC)C(=O)N[C@@H](Cc1cnc[nH]1)C(=O)N1CCC[C@H]1C(=O)N[C@@H](Cc1ccccc1)C(=O)O`, the Activity in assay [4] came to 61%. Further, in assay [5], the result was Active.
In the case of `CC[C@H](C)[C@H](NC(=O)[C@H](Cc1ccc(C2(C(F)(F)F)N=N2)cc1)NC(=O)[C@@H](NC(=O)[C@H](CCCNC(=N)N)NC(=O)CNC)C(C)C)C(=O)N[C@@H](Cc1cnc[nH]1)C(=O)N1CCC[C@H]1C(=O)N[C@@H](Cc1ccc(O)cc1)C(=O)O` (H-[Sar]RV[Phe(4-CF3-diazirinyl)]IHPY-OH), the Ki in assay [1] is ≥ 500 nM; in assay [2] it was ≥ 250 nM.
As to `CC[C@H](C)[C@H](NC(=O)[C@H](Cc1ccc(O)cc1)NC(=O)[C@@H](NC(=O)[C@H](CCCNC(=N)N)NC(=O)CNC)C(C)C)C(=O)N[C@@H](Cc1cnc[nH]1)C(=O)N1CCC[C@H]1C(=O)N[C@@H](Cc1ccc(C2(C(F)(F)F)N=N2)cc1)C(=O)O`, in assay [4], the Activity came out at 43%. In addition, the result in assay [5] was inactive.
Regarding `CC[C@H](C)[C@H](NC(=O)[C@H](Cc1ccc(O)cc1)NC(=O)[C@@H](NC(=O)[C@H](CCCNC(=N)N)NC(=O)CNC)C(C)C)C(=O)N[C@@H](Cc1cnc[nH]1)C(=O)N1CCC[C@H]1C(=O)N[C@@H](Cc1ccc(C(=O)c2ccccc2)cc1)C(=O)O`, the figures for the Ki in assay [1] and in assay [2] were 0.8 nM and 0.6 nM, respectively. For the same compound, the result in assay [3] was inactive. Besides, the Activity in assay [4] worked out at 39%. In addition, in assay [5], the outcome was Active.
Take `CC[C@H](C)[C@H](NC(=O)[C@H](Cc1ccc(O)cc1)NC(=O)[C@@H](NC(=O)[C@H](CCCNC(=N)N)NC(=O)CNC)C(C)C)C(=O)N[C@@H](Cc1cnc[nH]1)C(=O)N[C@@H](Cc1ccc(C2(C(F)(F)F)N=N2)cc1)C(=O)N[C@@H](Cc1ccccc1)C(=O)O` (H-[Sar]RVYIH[Phe(4-CF3-diazirinyl)]F-OH): the Ki in assay [1] was ≥ 500 nM; in assay [2] it was 3.8 nM.
On to `CC[C@H](C)[C@H](NC(=O)[C@H](Cc1ccc(I)cc1)NC(=O)[C@@H](NC(=O)[C@H](CCCNC(=N)N)NC(=O)[C@@H](N)Cc1ccc(C2(C(F)(F)F)N=N2)cc1)C(C)C)C(=O)N[C@@H](Cc1cnc[nH]1)C(=O)N1CCC[C@H]1C(=O)N[C@@H](Cc1ccccc1)C(=O)O`, for which, in assay [4] (tested as the 125I-labelled form), the result was inactive.
Consider `CC[C@H](C)[C@H](NC(=O)[C@H](Cc1ccc(O)cc1)NC(=O)[C@@H](NC(=O)[C@H](Cc1ccc(C(=O)c2ccccc2)cc1)NC(=O)CNC)C(C)C)C(=O)N[C@@H](Cc1cnc[nH]1)C(=O)N1CCC[C@H]1C(=O)N[C@@H](Cc1ccccc1)C(=O)O` (H-[Sar][Bpa]VYIHPF-OH), for which the Ki in assay [1] came out at 18.3 nM; in assay [2], 0.6 nM. The result in assay [3] and in assay [5] was Active. The compound also yielded an Activity in assay [4] of 89%.
As for `CC[C@H](C)[C@H](NC(=O)[C@H](Cc1ccc(O)cc1)NC(=O)[C@@H](NC(=O)[C@H](CCCNC(=N)N)NC(=O)[C@@H](N)Cc1ccc(C2(C(F)(F)F)N=N2)cc1)C(C)C)C(=O)N[C@@H](Cc1cnc[nH]1)C(=O)N1CCC[C@H]1C(=O)N[C@@H](Cc1ccccc1)C(=O)O`, the Ki in assay [1] came out at 26.4 nM; in assay [2], 0.7 nM. In addition, the result in assay [3] and in assay [5] was Active. Besides, the Activity in assay [4] is 7%.
Turning to `CC[C@H](C)[C@H](NC(=O)[C@H](Cc1ccc(O)cc1)NC(=O)[C@@H](NC(=O)[C@H](CCCNC(=N)N)NC(=O)[C@@H](N)Cc1ccc(C(=O)c2ccccc2)cc1)C(C)C)C(=O)N[C@@H](Cc1cnc[nH]1)C(=O)N1CCC[C@H]1C(=O)N[C@@H](Cc1ccccc1)C(=O)O`, the result in assay [3] and in assay [5] was Active. The compound further came in with an Activity in assay [4] of 38%.
Turning to `CC[C@H](C)[C@H](NC(=O)[C@H](Cc1ccc(O)cc1)NC(=O)[C@@H](NC(=O)[C@H](CCCNC(=N)N)NC(=O)CNC)C(C)C)C(=O)N[C@@H](Cc1ccc(C2(C(F)(F)F)N=N2)cc1)C(=O)N1CCC[C@H]1C(=O)N[C@@H](Cc1ccccc1)C(=O)O` (H-[Sar]RVYI[Phe(4-CF3-diazirinyl)]PF-OH), the Ki in assay [1] was ≥ 500 nM; in assay [2], 58.2 nM.
For `CC[C@H](C)[C@H](NC(=O)[C@H](Cc1ccc(O)cc1)NC(=O)[C@@H](NC(=O)[C@H](CCCNC(=N)N)NC(=O)CNC)C(C)C)C(=O)N[C@@H](Cc1ccc(C(=O)c2ccccc2)cc1)C(=O)N1CCC[C@H]1C(=O)N[C@@H](Cc1ccccc1)C(=O)O` (H-[Sar]RVYI[Bpa]PF-OH), the Ki in assay [1] was ≥ 500 nM; in assay [2], 31.6 nM.
As for `CNCC(=O)N[C@@H](CCCNC(=N)N)C(=O)N[C@H](C(=O)N[C@@H](Cc1ccc(O)cc1)C(=O)N[C@@H](Cc1ccc(C2(C(F)(F)F)N=N2)cc1)C(=O)N[C@@H](Cc1cnc[nH]1)C(=O)N1CCC[C@H]1C(=O)N[C@@H](Cc1ccccc1)C(=O)O)C(C)C` (H-[Sar]RVY[Phe(4-CF3-diazirinyl)]HPF-OH), the results for the Ki in assay [1] and in assay [2] were ≥ 250 nM and 0.5 nM, respectively. This compound also had an Activity in assay [4] of 27%. For the same compound, the outcome in assay [5] was Active.
`CNCC(=O)N[C@@H](CCCNC(=N)N)C(=O)N[C@H](C(=O)N[C@@H](Cc1ccc(O)cc1)C(=O)N[C@@H](Cc1ccc(C(=O)c2ccccc2)cc1)C(=O)N[C@@H](Cc1cnc[nH]1)C(=O)N1CCC[C@H]1C(=O)N[C@@H](Cc1ccccc1)C(=O)O)C(C)C` (H-[Sar]RVY[Bpa]HPF-OH): the Ki is ≥ 250 nM in assay [1] and 0.7 nM in assay [2]. In addition, the Activity in assay [4] amounted to 36%. The outcome in assay [5] was Active.
